Test results taken from patent US20250032625A1, “HETEROBIFUNCTIONAL MOLECULES AS TEAD INHIBITORS” (Merck Patent GmbH, priority 2021, published 2025).

Legend:
[1] = target: TEAD1 in SK-HEP1 cells (Homo sapiens (Human), UniProt P28347); assay: TEAD degradation in SK-HEP1 cell line (immunofluorescence); format: cell-based; conditions: 24 hours, ranges, read-out: DC50 SK-HEP1
Protocol: (§1) Degradation of TEAD isoform TEAD1 by exemplary compounds which has been determined at different time points in two different cell lines, SK-HEP1 and NCI-H226: For the assay, SK-HEP1 (ATCC HTB-52) and NCI-H226 (ATCC CRL-5826) cells were treated in duplicates with the test compounds in a 10-point dose, 1:3 dilution steps, with the top concentration starting at 30 uM (final concentration in assay). After either 16 or 24 hour incubation at 37° C., 95% rH, and 5% CO2, the cells were fixed with 4% PFA and TEAD1 levels were probed using immunofluorescence. The primary antibody used was Anti-TEF1 (BD, 610293) and the secondary antibody used was Alexa Fluor® 488 Goat Anti-Mouse IgG (H+L) (Molecular Probes, A-11001). Finally, the cell nuclei were co-stained by Hoechst 33258 (Invitrogen, H-3569) and imaged using a high content imager. The amount of TEAD degradation was determined by quantifying the fluorescence intensity levels of Anti-TEF1 in each individual cell per well. DC50 was calculated using curve fitting software Genedata Screener. Cell media: The SK-HEP1 cells were cultured in the following media: MEM, +10% FCS, +1× GlutaMAX, +100 μM NEAA, +10 mM HEPES, +0.5% Pen/Strep. The NCI-H226 cells were cultured in the following media: RPMI 1640, +10% FBS, +1× GlutaMAX, +10 mM HEPES, +0.5% Pen/Strep.

[2] = target: TEAD1 in NCI-H226 cells (Homo sapiens (Human), UniProt P28347); assay: TEAD degradation in NCI-H226 cell line (immunofluorescence); format: cell-based; conditions: 24 hours, ranges, read-out: DC50 NCI-H226
Protocol: as §1

Chain of TEAD1 in SK-HEP1 cells (P28347 whole entry, canonical isoform): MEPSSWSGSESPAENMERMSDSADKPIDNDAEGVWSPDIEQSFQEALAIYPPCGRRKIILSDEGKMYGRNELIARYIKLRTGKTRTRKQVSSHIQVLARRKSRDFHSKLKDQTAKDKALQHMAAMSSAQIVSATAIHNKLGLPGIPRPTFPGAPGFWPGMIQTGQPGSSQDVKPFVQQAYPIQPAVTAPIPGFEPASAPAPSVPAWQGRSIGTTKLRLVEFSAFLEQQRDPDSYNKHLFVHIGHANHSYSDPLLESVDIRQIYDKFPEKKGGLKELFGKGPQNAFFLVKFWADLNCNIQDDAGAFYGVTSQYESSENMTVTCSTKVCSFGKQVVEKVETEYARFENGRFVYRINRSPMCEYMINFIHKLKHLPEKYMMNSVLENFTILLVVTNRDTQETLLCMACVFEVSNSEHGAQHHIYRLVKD
Chain of TEAD1 in NCI-H226 cells (P28347 whole entry): as the sequence (P28347 whole entry, canonical isoform) above

SMILES | DC50 [1] [µM] | DC50 [2] [µM]
Cc1ncsc1-c1ccc(CNC(=O)[C@@H]2C[C@@H](O)CN2C(=O)[C@@H](NC(=O)CCCCCC(=O)NCCOCCOCCNC(=O)c2ccc3c(c2)c2nn(C)nc2n3-c2ccc(C(F)(F)F)cn2)C(C)(C)C)cc1 [Compound 55, N-[(2S)-1-[(2S,4R)-4-hydroxy-2-({[4-(4-methyl-1,3-thiazol-5-yl)phenyl]methyl}carbamoyl)pyrrolidin-1-yl]-3,3-dimethyl-1-oxobutan-2-yl]-N′-(2-{2-[2-({2-methyl-4-[5-(trifluoromethyl)pyridin-2-yl]-2H,4H-[1,2,3]triazolo[4,5-b]indol-7-yl}formamido)ethoxy]ethoxy}ethyl)-heptanediamide] | 0.1 to 1 | 0.1 to 1
Cn1cc2c3cc(C(=O)NCCOCCOCCOCCOCCOc4ccc5c(c4)C(=O)N(C4CCC(=O)NC4=O)C5=O)ccc3n(-c3ccc(C(F)(F)F)cc3)c2n1 (centres unmarked) [Compound 88, N-(14-{[2-(2,6-dioxopiperidin-3-yl)-1,3-dioxo-2,3-dihydro-1H-isoindol-5-yl]oxy}-3,6,9,12-tetraoxatetradecan-1-yl)-2-methyl-8-[4-(trifluoromethyl)phenyl]-2H,8H-pyrazolo[3,4-b]indole-5-carboxamide] | 0.1 to 1 | 0.1 to 1
Cc1ncsc1-c1ccc(CNC(=O)[C@@H]2C[C@@H](O)CN2C(=O)[C@@H](NC(=O)CCCCCc2cnnn2CCCCCCCNC(=O)c2ccc3c(c2)c2cn(C)nc2n3-c2ccc(C(F)(F)F)cc2)C(C)(C)C)cc1 [Compound 37, (2S,4R)-1-[(2S)-3,3-dimethyl-2-(6-{1-[7-({2-methyl-8-[4-(trifluoromethyl)-phenyl]-2H,8H-pyrazolo[3,4-b]indol-5-yl}formamido)heptyl]-1H-1,2,3-triazol-5-yl}hexanamido)butanoyl]-4-hydroxy-N-{[4-(4-methyl-1,3-thiazol-5-yl)phenyl]methyl}pyrrolidine-2-carboxamide] | 0.1 to 1 | 0.1 to 1
Cc1ncsc1-c1ccc(CNC(=O)[C@@H]2C[C@@H](O)CN2C(=O)[C@@H](NC(=O)CCCCCc2cn(CCCCCCNC(=O)c3ccc4c(c3)c3cn(C)nc3n4-c3ccc(C(F)(F)F)cc3)nn2)C(C)(C)C)cc1 [Compound 35, (2S,4R)-1-[(2S)-3,3-dimethyl-2-(6-{1-[6-({2-methyl-8-[4-(trifluoromethyl)phenyl]-2H,8H-pyrazolo[3,4-b]indol-5-yl}formamido)hexyl]-1H-1,2,3-triazol-4-yl}hexanamido)butanoyl]-4-hydroxy-N-{[4-(4-methyl-1,3-thiazol-5-yl)phenyl]methyl}pyrrolidine-2-carboxamide] | < 0.1 | < 0.1
Cc1ncsc1-c1ccc([C@H](C)NC(=O)[C@@H]2C[C@@H](O)CN2C(=O)[C@@H](NC(=O)CCCCCc2cnnn2CCCCCCCNC(=O)c2ccc3c(c2)c2cn(C)nc2n3-c2ccc(C(F)(F)F)cc2)C(C)(C)C)cc1 [Compound 38, (2S,4R)-1-[(2S)-3,3-dimethyl-2-(6-{1-[7-({2-methyl-8-[4-(trifluoromethyl)-phenyl]-2H,8H-pyrazolo[3,4-b]indol-5-yl}formamido)heptyl]-1H-1,2,3-triazol-5-yl}hexanamido)butanoyl]-4-hydroxy-N-[(1S)-1-[4-(4-methyl-1,3-thiazol-5-yl)phenyl]ethyl]pyrrolidine-2-carboxamide] | 0.1 to 1 | 0.1 to 1
Cn1cc2c3cc(C(=O)NCCOCCOCCOCCOCCOCCNc4cccc5c4C(=O)N(C4CCC(=O)NC4=O)C5=O)ccc3n(-c3ccc(C(F)(F)F)cc3)c2n1 (centres unmarked) [Compound 47, N-(17-{[2-(2,6-dioxopiperidin-3-yl)-1,3-dioxo-2,3-dihydro-1H-isoindol-4-yl]amino}-3,6,9,12,15-pentaoxaheptadecan-1-yl)-2-methyl-8-[4-(trifluoro-methyl)phenyl]-2H,8H-pyrazolo[3,4-b]indole-5-carboxamide] | < 0.1 | < 0.1
Cc1ncsc1-c1ccc(CNC(=O)[C@@H]2C[C@@H](O)CN2C(=O)[C@@H](NC(=O)CCCCCCCCCOCCOCCNC(=O)c2ccc3c(c2)c2cn(C)nc2n3-c2ccc(C(F)(F)F)cc2)C(C)(C)C)cc1 [Compound 56] | 0.1 to 1 | 0.1 to 1
